# In patent US4562202A, “N-Acyl hexahydroindole-2-carboxylic acids and anti-hypertensive use thereof” (Hoechst Aktiengesellschaft, priority 1982, dated 1985):
# Test system: pressor reaction induced by angiotensin I
# Assay: Inhibition of the pressor reaction induced by 310 ng of angiotensin I, intraduodenal administration to the anaesthetized rat
# Type: in vivo
# Settings: 0.5 h, 310 ng angiotensin I, 30 min. after administration, read-out: ED50 (50% inhibition of the pressor reaction induced by 310 ng of angiotensin I 30 min. after administration)
# Protocol: intraduodenal administration to the anaesthetized rat, 50% inhibition of the pressor reaction induced by 310 ng of angiotensin I 30 min. after administration in the dose . . . =ED50 : […]
row,SMILES,ED50
1,"CCOC(=O)[C@H](CC(=O)c1ccccc1)N[C@@H](C)C(=O)N1[C@H](C(=O)O)C[C@@H]2CCC=C[C@@H]21 [N-(1S-carboethoxy-3-oxo-3-phenylpropyl)-S-alanyl-cis-2,3,3a,4,5,7a-hexahydro[1H]indole-2S-endocarboxylic acid]",0.39 mg/kg
2,"CCOC(=O)[C@H](CC(=O)c1ccccc1)N[C@@H](C)C(=O)N1[C@@H]2C=CCC[C@@H]2C[C@H]1C(=O)O [N-(1S-carboethoxy-3-oxophenylpropyl)-S-alanyl-cis-2,3,3a,4,5,7a-hexahydro[1H]indole-2S-exocarboxylic acid]",0.5 mg/kg
3,"CCOC(=O)[C@H](CCc1ccccc1)N[C@@H](C)C(=O)N1[C@H](C(=O)O)C[C@@H]2CCC=C[C@@H]21 [N-(1S-carboethoxy-3-phenylpropyl)-S-alanyl-cis-2,3,3a,4,5,7a-hexahydro [1H]indole-2S-endo-carboxylic acid]",0.04 mg/kg
4,"CCOC(=O)[C@H](CCc1ccccc1)N[C@@H](C)C(=O)N1C(C(=O)O)CC2CCC=CC21 (stereo partly drawn) [N-(1S-carboethoxy-3-phenylpropyl)-S-alanyl-cis-2,3,3a,4,5,7a-hexahydro[1H]indole-2R,S-endo-carboxylic acid]",0.08 mg/kg
5,"CCOC(=O)[C@H](CCc1ccccc1)N[C@@H](C)C(=O)N1[C@@H]2C=CCC[C@@H]2C[C@H]1C(=O)O [N-(1S-carboethoxy-3-phenylpropyl)-S-alanyl-cis-2,3,3a,4,5,7a-hexahydro[1H]indole-2S-exo-carboxylic acid]",0.07 mg/kg
6,"C[C@H](N[C@@H](CCc1ccccc1)C(=O)O)C(=O)N1[C@H](C(=O)O)C[C@@H]2CCC=C[C@@H]21 [N-(1S-carboxy-3-phenylpropyl)-S-alanyl-cis-2,3,3a,4,5,7a-hexahydro[1H]indole-2S-endo-carboxylic acid]",0.6 mg/kg
7,"C[C@H](N[C@@H](CCc1ccccc1)C(=O)O)C(=O)N1[C@@H]2C=CCC[C@@H]2C[C@H]1C(=O)O [N-(1S-carboxy-3-phenylpropyl)-S-alanyl-cis-2,3,3a,4,5,7a-hexahydro[1H]indole-2S-exo-carboxylic acid]",0.7 mg/kg
